Several values for one entry are separate records, joined by “and”; a condition that tells them apart may be missing. Identical values can stand only once.
Tested on: receptors coupled to Gi proteins expressed on osteoblasts
Test: Cellular Dielectric Spectroscopy (CDS, CELLKEY) response to Gi-coupled receptor ligands in osteoblasts from control and AIS subjects
Format: cell-based, human
Parameters: % of control / % of control signal, Group 1, min diff. / % of control signal, Group 2, min diff. / % of control signal, Group 3, min diff.: concentration or dose not given beside the values; dZiec value / Absolute dZiec, control value of max diff. (maximal control value): unit not given here
Conditions: for dZiec value / Absolute dZiec, control value of max diff. (maximal control value) / Absolute dZiec, control value of min diff. (minimal control value) / Absolute dZiec, Group 1, max diff. (group value) / Absolute dZiec, Group 1, min diff. (group value) / Absolute dZiec, Group 2, max diff. (group value) / Absolute dZiec, Group 2, min diff. (group value) / Absolute dZiec, Group 3, max diff. (group value) / Absolute dZiec, Group 3, min diff. (group value): 300 μM ligand; for dZiec value: n1, n2 of Exper. 1-3; for Absolute dZiec, control value of max diff. (maximal control value) / Absolute dZiec, control value of min diff. (minimal control value): osteoblasts of control subjects; for Absolute dZiec, control value of max diff. (maximal control value) / Absolute dZiec, control value of min diff. (minimal control value) / Absolute dZiec, Group 1, max diff. (group value) / Absolute dZiec, Group 1, min diff. (group value) / Absolute dZiec, Group 2, max diff. (group value) / Absolute dZiec, Group 2, min diff. (group value) / Absolute dZiec, Group 3, max diff. (group value) / Absolute dZiec, Group 3, min diff. (group value): from FIGS. 11A-11F; for Absolute dZiec, Group 1, max diff. (group value) / Absolute dZiec, Group 1, min diff. (group value) / % of control signal, Group 1, max diff. / % of control signal, Group 1, min diff. / Absolute dZiec, Group 2, max diff. (group value) / Absolute dZiec, Group 2, min diff. (group value) / % of control signal, Group 2, max diff. / % of control signal, Group 2, min diff. / Absolute dZiec, Group 3, max diff. (group value) / Absolute dZiec, Group 3, min diff. (group value) / % of control signal, Group 3, max diff. / % of control signal, Group 3, min diff.: osteoblasts; for Absolute dZiec, Group 1, max diff. (group value): AIS Group 1 value of max diff.; for Absolute dZiec, Group 1, min diff. (group value): AIS Group 1 value of min diff.; for % of control signal, Group 1, max diff.: AIS Group 1 vs maximal control value; for % of control signal, Group 1, min diff.: AIS Group 1 vs minimal control value; for Absolute dZiec, Group 2, max diff. (group value): AIS Group 2 value of max diff.; for Absolute dZiec, Group 2, min diff. (group value): AIS Group 2 value of min diff.; for % of control signal, Group 2, max diff.: AIS Group 2 vs maximal control value; for % of control signal, Group 2, min diff.: AIS Group 2 vs minimal control value; for Absolute dZiec, Group 3, max diff. (group value): AIS Group 3 value of max diff.; for Absolute dZiec, Group 3, min diff. (group value): AIS Group 3 value of min diff.; for % of control signal, Group 3, max diff.: AIS Group 3 vs maximal control value; for % of control signal, Group 3, min diff.: AIS Group 3 vs minimal control value
From the text: Bone specimens were obtained intraoperatively from vertebras (varying from T3 to L4 according to the surgical procedure performed), while with trauma cases used as non-scoliotic controls bone specimens were obtained from other anatomical sites (tibia or femur, and in one case from an iliac crest biopsy). Osteoblasts and myoblasts isolated as previously described (Moreau A, Wang D S, Forget S et al. Melatonin Signaling Dysfunction in Adolescent Idiopathic Scoliosis. Spine 2004; 29:1772-81; Azeddine et al., 2007 Molecular determinants of melatonin signaling dysfunction in adolescent idiopathic scoliosis. Clin Orthop Relat Res. 2007, 462:45-52), were cultured at 37° C./5% CO2 in MEM supplemented with 10% fetal bovine serum (FBS) and 100 μg/mL streptomycin. Prior to the experiment, cells were seeded into the CELLKEY™ label-free cellular analysis system standard 96-well plates at a density of 5×10^4/well and grown for 24 h and incubated in standard conditions (37° C./5% CO2). In some plates, Pertussis toxin (100 ng/mL, Sigma, Oakville, ON, Canada) treatment was performed 16 h before the CDS assay. Following overnight incubation, plates were placed onto the CELLKEY™ label-free cellular analysis system and growth medium was exchanged to assay buffer (Hanks, Balanced Salt Solution containing 20 mM HEPES and 0.1% BSA) before starting the experiment. Cells were then allowed to equilibrate at room temperature for 30 min. Pre-addition measurements were made for 5 min to obtain a baseline reading. […] The quick update rate (2 s.) of the CELLKEY™ label-free cellular analysis system allows detection of these immediate changes in impedance. Impedance measurements were collected for 10 min to 15 min at 28° C. after ligand addition to monitor cellular responses to ligand interaction and to generate CELLKEY™ label-free cellular analysis system response profiles that are characteristic of the signaling mechanisms used.
The response induced by the various ligands to their receptors was measured by cellular dielectric spectroscopy (CDS) using the CELLKEY™ label-free cellular analysis technology. (MDS Sciex, San Francisco, Calif., USA). The CELLKEY™ label-free cellular analysis system integrates a proprietary impedance measurement system, custom 96-well microliter plate, onboard 96-well fluidics, and environment control and custom acquisition and analysis software in a full solution package (MDS Sciex) that is compatible with commercially available robotic platforms. Small voltage at 24 frequencies, from 1 KHz to 10 MHz, is applied to a monolayer of cells settled in a 96-well microplate containing electrodes at the bottom, and the resultant current is measured at an update rate of 2 s. […] Onboard fluid additions and exchanges are handled by 96-well head fluid delivery device with a range of 5-500 μL. In addition to the cell plate location, the CELLKEY™ label-free cellular analysis system includes two additional stations for 96- or 384-well compound plates. All aspects of assay set up, execution, and data acquisition and analysis are controlled by CELLKEY™ label-free cellular analysis software.
The minimal (min) and maximal (max) values represent the mean of three independent measurements performed in duplicate (six values in total) for a given patient/control subject. […] Duplicates (n1 and n2) of three independent experiments are presented.

## CNC(=O)[C@H]1O[C@@H](n2cnc3c(NCc4cccc(I)c4)ncnc32)[C@H](O)[C@@H]1O [IB-meca, 1-Deoxy-1-[6-[[(3-iodophenyl)methyl]amino]-9H-purin-9-yl]-N-methyl-β-D-ribofuranuronamide]
Osteoblasts of AIS#1020 (Group 3) relative to CTR#60
  % of control: 50.1% and 47.6% and 50.6% and 47.2% and 47.5% and 50.0%
Osteoblasts of AIS#1020 (Group 3)
  dZiec value: 74.19 and 76.19 and 87.32 and 85.32 and 76.76 and 84.76
Osteoblasts of AIS#1198 (Group 3 in Table II) relative to CTR#69
  % of control: 41.1% and 45.4% and 47.8% and 50.0% and 45.1% and 47.6%
Osteoblasts of AIS#1198 (Group 3 in Table II)
  dZiec value: 63.58 and 75.58 and 85.63 and 93.63 and 75.61 and 83.61
Osteoblasts of AIS#1385 (Group 2) relative to CTR#69
  % of control: 47.6% and 45.3% and 47.5% and 44.4% and 44.9% and 47.4%
Osteoblasts of AIS#1385 (Group 2)
  dZiec value: 73.49 and 75.49 and 85.15 and 83.15 and 75.32 and 83.32
Osteoblasts of AIS#1468 (Group 3) relative to CTR#61
  % of control: 77.6% and 79.5% and 78.4% and 78.2% and 79.4%
Osteoblasts of AIS#1468 (Group 3)
  dZiec value: 98.77 and 110.77 and 121.90 and 129.90 and 111.34 and 119.34
Osteoblasts of AIS#1474 (Group 1) relative to CTR#60
  % of control: 21.1% and 18.9% and 21.2% and 20.8% and 18.5% and 22.4%
Osteoblasts of AIS#1474 (Group 1)
  dZiec value: 31.25 and 30.25 and 36.61 and 37.61 and 29.93 and 37.93
Osteoblasts of AIS#1488 (Group 1) relative to CTR#69
  % of control: 25.5% and 24.8% and 26.8% and 24.5% and 23.6% and 27.1%
Osteoblasts of AIS#1488 (Group 1)
  dZiec value: 39.34 and 41.34 and 47.91 and 45.91 and 39.63 and 47.63
Osteoblasts of AIS#1513 (Group 3) relative to CTR#61
  % of control: 61.6% and 64.9% and 67.0% and 68.6% and 64.8% and 66.7%
Osteoblasts of AIS#1513 (Group 3)
  dZiec value: 78.36 and 90.36 and 104.12 and 112.12 and 92.24 and 100.24
Osteoblasts of AIS#1550 (Group 2) relative to CTR#60
  % of control: 44.2% and 42.1% and 47.0% and 43.8% and 42.9% and 45.6%
Osteoblasts of AIS#1550 (Group 2)
  dZiec value: 65.47 and 67.47 and 81.23 and 79.23 and 69.35 and 77.35
Osteoblasts of control CTR#60
  dZiec value: 148.22/— and 160.22/— and 172.73/— and 180.73/— and 161.48/— and 169.48/—
Osteoblasts of control CTR#61
  dZiec value: 127.27/— and 139.27/— and 155.44/— and 163.44/— and 142.36/— and 150.36/—
Osteoblasts of control CTR#69
  dZiec value: 154.52/— and 166.52/— and 179.10/— and 187.10/— and 167.81/— and 175.81/—
  Absolute dZiec, control value of max diff. (maximal control value): 172
  Absolute dZiec, control value of min diff. (minimal control value): 132
  Absolute dZiec, Group 1, max diff. (group value): 20
  Absolute dZiec, Group 1, min diff. (group value): 43
  % of control signal, Group 1, max diff.: 12%
  % of control signal, Group 1, min diff.: 33%
  Absolute dZiec, Group 2, max diff. (group value): 73
  Absolute dZiec, Group 2, min diff. (group value): 80
  % of control signal, Group 2, max diff.: 42%
  % of control signal, Group 2, min diff.: 61%
  Absolute dZiec, Group 3, max diff. (group value): 98
  Absolute dZiec, Group 3, min diff. (group value): 115
  % of control signal, Group 3, max diff.: 55%
  % of control signal, Group 3, min diff.: 87%

## O=C(O)/C=C\C(=O)O.c1ccc(N2CCN(CCCOc3ccc4c(c3)OCO4)CC2)cc1 [BP554, 1-[3-(3,4-Methylenedioxyphenoxy)propyl]-4-phenyl-piperazine maleate]
Osteoblasts of AIS#1020 (Group 3) relative to CTR#60, maleate
  % of control: 44.5% and 42.3% and 48.5% and 45.1% and 43.7% and 46.6%
Osteoblasts of AIS#1020 (Group 3), maleate
  dZiec value: 62.57 and 64.57 and 78.63 and 76.63 and 66.6 and 74.6
Osteoblasts of AIS#1198 (Group 3 in Table II) relative to CTR#69, maleate
  % of control: 41.1% and 45.0% and 40.6% and 43.5%
Osteoblasts of AIS#1198 (Group 3 in Table II), maleate
  dZiec value: 59.83 and 64.83 and 74.63 and 70.63 and 63.73 and 71.73
Osteoblasts of AIS#1385 (Group 2) relative to CTR#69, maleate
  % of control: 50.4% and 43.4% and 51.9% and 49.0% and 46.4% and 44.8%
Osteoblasts of AIS#1385 (Group 2), maleate
  dZiec value: 73.41 and 68.41 and 86.15 and 85.15 and 72.78 and 73.78
Osteoblasts of AIS#1468 (Group 3) relative to CTR#61, maleate
  % of control: 63.8% and 66.8% and 67.5% and 69.1% and 66.0% and 67.8%
Osteoblasts of AIS#1468 (Group 3), maleate
  dZiec value: 84.51 and 96.51 and 104.4 and 112.4 and 95.45 and 103.45
Osteoblasts of AIS#1474 (Group 1) relative to CTR#60, maleate
  % of control: 28.4% and 27.5% and 31.8% and 29.7% and 28.7% and 29.1%
Osteoblasts of AIS#1474 (Group 1), maleate
  dZiec value: 39.94 and 41.94 and 51.45 and 50.45 and 43.7 and 46.7
Osteoblasts of AIS#1488 (Group 1) relative to CTR#69, maleate
  % of control: 30.2% and 29.2% and 32.7% and 30.0% and 28.8% and 32.3%
Osteoblasts of AIS#1488 (Group 1), maleate
  dZiec value: 44.06 and 46.06 and 54.24 and 52.24 and 45.15 and 53.15
Osteoblasts of AIS#1513 (Group 3) relative to CTR#61, maleate
  % of control: 68.8% and 71.4% and 73.3% and 74.6% and 71.5% and 72.9%
Osteoblasts of AIS#1513 (Group 3), maleate
  dZiec value: 91.15 and 103.15 and 113.38 and 121.38 and 103.27 and 111.27
Osteoblasts of AIS#1549 (Group 1) relative to CTR#61, maleate
  % of control: 19.7%
Osteoblasts of AIS#1550 (Group 2) relative to CTR#60, maleate
  % of control: 53.1% and 56.8% and 56.5% and 58.5% and 55.2% and 57.4%
Osteoblasts of AIS#1550 (Group 2), maleate
  dZiec value: 74.64 and 86.64 and 91.46 and 99.46 and 84.05 and 92.05
Osteoblasts of control CTR#60, maleate
  dZiec value: 140.49/— and 152.49/— and 162/— and 170/— and 152.25/— and 160.25/—
Osteoblasts of control CTR#61, maleate
  dZiec value: 132.45/— and 144.45/— and 154.6/— and 162.6/— and 144.53/— and 152.53/—
Osteoblasts of control CTR#69, maleate
  dZiec value: 145.69/— and 157.69/— and 165.87/— and 173.87/— and 156.78/— and 164.78/—
  Absolute dZiec, control value of max diff. (maximal control value): 166
  Absolute dZiec, control value of min diff. (minimal control value): 128
  Absolute dZiec, Group 1, max diff. (group value): 32
  Absolute dZiec, Group 1, min diff. (group value): 49
  % of control signal, Group 1, max diff.: 19%
  % of control signal, Group 1, min diff.: 38%
  Absolute dZiec, Group 2, max diff. (group value): 67
  Absolute dZiec, Group 2, min diff. (group value): 88
  % of control signal, Group 2, max diff.: 40%
  % of control signal, Group 2, min diff.: 69%
  Absolute dZiec, Group 3, max diff. (group value): 99
  Absolute dZiec, Group 3, min diff. (group value): 107
  % of control signal, Group 3, max diff.: 60%
  % of control signal, Group 3, min diff.: 84%

Reference: patent US10620222B2, “Electrified compositions for determining the risk of developing adolescent idiopathic scoliosis through the use of GI protein receptor” (CHU Sainte-Justine, priority 2008, dated 2020)
